{"source": "patent US8809529B2", "about": "“Imidazo[1,2-α]pyrazine derivatives” (Promega Corporation, priority 2010, dated 2014)", "molecules": {"B1": {"name": "Luc2: a firefly luciferase (protein, listed as Photinus pyralis)", "chain": "MEDAKNIKKGPAPFYPLEDGTAGEQLHKAMKRYALVPGTIAFTDAHIEVDITYAEYFEMSVRLAEAMKRYGLNTNHRIVVCSENSLQFFMPVLGALFIGVAVAPANDIYNERELLNSMGISQPTVVFVSKKGLQKILNVQKKLPIIQKIIIMDSKTDYQGFQSMYTFVTSHLPPGFNEYDFVPESFDRDKTIALIMNSSGSTGLPKGVALPHRTACVRFSHARDPIFGNQIIPDTAILSVVPFHHGFGMFTTLGYLICGFRVVLMYRFEEELFLRSLQDYKIQSALLVPTLFSFFAKSTLIDKYDLSNLHEIASGGAPLSKEVGEAVAKRFHLPGIRQGYGLTETTSAILITPEGDDKPGAVGKVVPFFEAKVVDLDTGKTLGVNQRGELCVRGPMIMSGYVNNPEATNALIDKDGWLHSGDIAYWDEDEHFFIVDRLKSLIKYKGYQVAPAELESILLQHPNIFDAGVAGLPDDDAGELPAAVVVLEHGKTMTEKEIVDYVASQVTTAKKLRGGVVFVDEVPKGLTGKLDARKIREILIKAKKGGKIAV"}}, "key": {"OgLuc variant 9B8 opt": {"target": "T1, OgLuc variant 9B8 opt (Oplophorus gracilirostris, UniProt Q9GV45, A31E/A60K/A81I/F95Y/I117V/L99Q/M102K/N193R/P142E/Q151K/Q38R/Q45L/V71I/Y165I)", "T1 construct": "made in house; host or cells: E. coli (crude lysate)", "T1 sequence (Q9GV45 other isoform, or with tags, fused parts or gaps with the stated changes)": "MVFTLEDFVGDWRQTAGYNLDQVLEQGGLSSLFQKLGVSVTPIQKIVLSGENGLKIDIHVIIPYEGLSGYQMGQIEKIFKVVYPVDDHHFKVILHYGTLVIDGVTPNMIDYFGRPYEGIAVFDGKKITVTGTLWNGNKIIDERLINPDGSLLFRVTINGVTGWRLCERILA", "test": "Multiplex assay with red click beetle luciferase and 9B8 opt (modified DUAL-GLO)", "format": "biochemical", "procedure": "A. Lysates of E. coli expressing the variant 9B8 opt were prepared as previously described in Example 27 and diluted 1000-fold in DMEM without phenol red+0.1% PRIONEX®. Luminescence from a sample containing 6.3 μg/mL of purified red click beetle luciferase and E. coli lysate expressing the variant 9B8 opt was detected using a modified DUAL-GLO® Luciferase Assay System (Promega Corp.). DUAL-GLO® STOP&GLO® Reagent containing 20 μM coelenterazine-h and DUAL-GLO® STOP&GLO® Reagent containing 20 μM PBI 3939 were used, according to the manufacturer's protocol, to detect the red click beetle luciferase and OgLuc variant 9B8 luciferase from a single sample. Three replicates were performed.\nLuminescence was detected on a Turner MODULUS™ luminometer. […] The standard deviation (“+/−”) and coefficient of variance (“CV”) are also shown. A “no coelenterazine” control was performed to illustrate the amount of quenching of the red click beetle signal by the DUAL-GLO® STOP&GLO® Reagent of the DUAL-GLO® Luciferase Assay System in the absence of coelenterazine. The “no coelenterazine” control yielded a 349-fold quench."}, "L27V02 enzyme": {"target": "T2, L27V02 enzyme (Oplophorus gracilirostris, UniProt Q9GV45, A31E/A60N/A81I/F95D/I117V/K70R/L54V/L99Q/M102K/N193R/P142E/Q151K/Q38R/Q45L/V71I/Y165I)", "T2 construct": "The N-terminus of the OgLuc variant L27V is methionine, valine and phenylalanine, i.e., MVF; made in house", "T2 sequence (Q9GV45 28-196 with tags or gaps with the stated changes limits assumed, one chain of several)": "as the sequence (Q9GV45 other isoform, or with tags, fused parts or gaps with the stated changes) above, with L29V, K35N, K45R, Y70D counted along it", "test": "Luminescence of compounds with purified L27V02 enzyme", "format": "biochemical", "conditions": "20 μM compound, 36 pM L27V02, pH 7, 3 min", "procedure": "Compounds PBI-4525, PBI-4540 and PBI-4541 were screened for their ability to detect luminescence. […] The assay reagent was then mixed with 36 pM purified L27V02 enzyme (described in Example 25B), in DMEM without Phenol Red and 0.1% PRIONEX®. As a control, assay buffer with 20 μM PBI-3939 or PBI-4528 was used. Luminescence was measured as previously described 3 min after the assay reagent was added to the enzyme mixture."}, "HEK293 cells [1]": {"test_system": "HEK293 cells", "test": "Live cell luminescence in HEK293 cells", "format": "cell-based, human", "conditions": "HEK293 cells expressing 9B8 opt, 60 μM", "procedure": "A. The use of OgLuc variants and PBI-3939 in live cells was examined. HEK293 cells were plated in 96-well plates at 15,000 cells/well and grown overnight, at 37° C. The following day, the cells were transiently transfected using TRANSIT®-LT1 in 3 replicates with 100 ng of hRL or 9B8 opt in pF4Ag and grown overnight at 37° C. The following day the growth media was removed and replaced with media containing 60 μM VIVIREN™ Live Cell Substrate (Promega Corp.), 60 μM ENDUREN™ Live Cell Substrate (Promega Corp.), or 60 μM PBI-3939 for both hRL and 9B8 opt transfected cells. Non-transfected cells were used as background control. The plate was incubated at 37° C. during the course of one day and periodically measured on a TECAN® GENIOS™ Pro luminometer, i.e., 11 times over the course of 24 hrs."}, "OgLuc variant L27V": {"target": "OgLuc variant L27V (Oplophorus gracilirostris, UniProt Q9GV45, A31E/A60N/A81I/F95D/I117V/K70R/L54V/L99Q/M102K/N193R/P142E/Q151K/Q38R/Q45L/V71I/Y165I)", "conditions": "approximately 20 pM L27V, pH 6, 3 min at 22° C.", "procedure": "To determine the Km of PBI-3939, the OgLuc variant L27V (described in Example 26) was purified via HALOTAG® fusion using the HALOTAG® Protein Purification System according to the manufacturer's instructions and diluted in DMEM without Phenol Red and 0.1% PRIONEX®. 50 μL assay buffer (100 mM MES pH 6, 35 mM Thiourea, 0.5% TERGITOL® NP-9 (v/v), 1 mM CDTA, 2 mM DTT and 150 mM KCl) with varying amounts of PBI-3939 was added to 50 μL diluted enzyme (approximately 20 pM final enzyme concentration), and luminescence measured at 3 min at 22° C."}, "HEK293 cells [2]": {"test_system": "HEK293 cells", "conditions": "human, 24 h"}, "OgLuc": {"target": "T3, OgLuc (Oplophorus gracilirostris, UniProt Q9GV45, A31E/A60K/A81I/F95Y/I117V/L99Q/M102K/N193R/P142E/Q151K/Q38R/Q45L/V71I/Y165I)", "T3 construct": "10 μL of purified 9B8, L27V or firefly luciferase (Luc2) enzyme; made in house", "T3 sequence (Q9GV45 other isoform, or with tags, fused parts or gaps with the stated changes)": "as the sequence (Q9GV45 other isoform, or with tags, fused parts or gaps with the stated changes) above", "test": "LOPAC library inhibition screen", "format": "biochemical", "conditions": "preliminary LOPAC screen with 9B8 variant, 20 μM substrate", "procedure": "To determine the susceptibility of the OgLuc variants to off-target interactions, the activity of the 9B8 and L27V variants was screened against a LOPAC (library of pharmacologically active compounds) library. A LOPAC 1280 library (Sigma) was prepared by diluting the compounds to 1 mM in DMSO. On the day of the assay, the compounds were diluted to 20 μM in 1×PBS, and 10 μL transferred to a 96-well, white plate. To each well, 10 μL of purified 9B8, L27V or firefly luciferase (Luc2) enzyme diluted 10^−4 in Glo Lysis Buffer (Promega Corp.) was added and incubated at room temperature for 2 min. […] For assaying firefly luciferase, the BRIGHT-GLO™ Assay reagent (Promega Corp.) was used according to the manufacturer's protocol. As a negative control, 8 wells of each plate contained 1×PBS+2% glycerol. As a positive control, 8 wells of each plate contained 2 mM Suramin in 2% DMSO or 2 mM luciferase inhibitor 1 in 2% DMSO (Calbiochem)."}, "HEK293 cells [3]": {"test_system": "HEK293 cells", "test": "Luminescence of luciferases in lysed HEK293 cells (codon optimization)", "format": "cell-based, human", "procedure": "Codon optimized versions of IV (“IV opt” (SEQ ID NO: 22) and “IV optB” (SEQ ID NO: 23)) and 9B8 (“9B8 opt” (SEQ ID NO: 24) and “9B8 optB” (SEQ ID NO: 25)) were generated and cloned into pF4Ag by methods known in the art. HEK293 cells were plated in 96-well plates at 15,000 cells/well and grown overnight at 37° C. The following day, the cells were transiently transfected in 6 well replicates using TRANSIT®-LT1 Transfection Reagent (Minis Bio) with 100 ng of plasmid DNA encoding the codon optimized versions in pF4Ag and grown overnight at 37° C. HEK293 cells were also transfected with either pGL4.13 (Luc2/SV40) (Paguio et al., “pGL4 Vectors: A New Generation of Luciferase Reporter Vectors” Promega Notes, 89:7-10 (2005)) or pGL4.73 (hRL/SV40) (Id.) to normalize for differences in transfection efficiency. Ten ng/transfection or 10% of the total DNA transfected was used.\nThe OgLuc variants had higher luminescence compared to Luc2 and hRL."}}}
{"molecule": "O=c1c(Cc2ccco2)nc2c(Cc3ccccc3)[nH]c(-c3ccccc3)cn1-2", "note": "[PBI-3939, 8-benzyl-2-(furan-2-ylmethyl)-6-phenylimidazo[1,2-a]pyrazin-3(7H)-one]", "values": [{"measurement": "Ogluc (average luminescence generated by 9B8 opt)", "setting": "OgLuc variant 9B8 opt; 20 μM substrate in DUAL-GLO STOP&GLO Reagent", "value": "2,996,940"}, {"measurement": "+/− coel", "setting": "OgLuc variant 9B8 opt; Ogluc signal relative to no coelenterazine control", "value": 207}, {"measurement": "Stability (pH 8) (T90 in hrs)", "value": 4.1, "unit": "hrs"}, {"measurement": "RLU", "setting": "L27V02 enzyme", "value": "9,808,880 RLU"}, {"measurement": "cell permeation", "setting": "HEK293 cells [1]", "value": "can permeate cells in culture"}, {"measurement": "Km", "setting": "OgLuc variant L27V", "value": "~10", "unit": "µM"}, {"measurement": "Viability (normalized to vehicle (DMSO) control) (%)", "setting": "HEK293 cells [2]", "value": 89, "unit": "%"}]}
{"molecule": "Cc1ccc(C(=O)Nc2ccc(S(=O)(=O)O)c3cc(S(=O)(=O)O)cc(S(=O)(=O)O)c23)cc1NC(=O)c1cccc(NC(=O)Nc2cccc(C(=O)Nc3cc(C(=O)Nc4ccc(S(=O)(=O)O)c5cc(S(=O)(=O)O)cc(S(=O)(=O)O)c45)ccc3C)c2)c1", "note": "[Suramin]", "values": [{"measurement": "inhibition of OgLuc", "setting": "OgLuc", "value": "inhibitor of OgLuc"}]}
{"molecule": "B1", "values": [{"measurement": "luminescence relative to hRL", "setting": "HEK293 cells [3]", "value": "approximately 14 fold"}]}
